# Columns and labels:
# Alpha 2B receptor = target: T1, Alpha 2B receptor (Homo sapiens, UniProt P18089); assay: RSAT (Receptor Selection and Amplification Technology) assay, alpha 2B; format: cell-based; conditions: for EC50: NIH-3T3 cells cotransfected with receptor and Gq/i5, na = not active; for RSAT (rel eff) Alpha 2B, intrinsic activity: ratio of maximal effect of the drug to maximal effect of standard full agonist brimonidine
# T1 construct: expressed in transfected cells; host or cells: NIH-3T3
# T1 sequence (P18089 1-450): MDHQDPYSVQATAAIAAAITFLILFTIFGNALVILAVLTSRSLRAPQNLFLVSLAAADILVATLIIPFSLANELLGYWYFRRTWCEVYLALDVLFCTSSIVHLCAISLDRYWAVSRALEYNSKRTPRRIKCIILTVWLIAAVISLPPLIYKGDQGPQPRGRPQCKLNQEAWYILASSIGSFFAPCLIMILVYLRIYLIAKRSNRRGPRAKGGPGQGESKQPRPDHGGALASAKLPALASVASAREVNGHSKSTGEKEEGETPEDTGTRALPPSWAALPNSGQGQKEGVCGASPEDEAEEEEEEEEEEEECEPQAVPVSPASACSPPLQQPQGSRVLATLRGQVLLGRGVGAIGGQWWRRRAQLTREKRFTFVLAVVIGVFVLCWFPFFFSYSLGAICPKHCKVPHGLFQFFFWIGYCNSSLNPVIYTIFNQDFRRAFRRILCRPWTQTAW
# Protocol: (§1) 76, pp. 308-311 (incorporated herein by reference) and is also described below.
# (§2) The RSAT assay measures a receptor-mediated loss of contact inhibition that results in selective proliferation of receptor-containing cells in a mixed population of confluent cells. The increase in cell number is assessed with an appropriate transfected marker gene such as β-galactosidase, the activity of which can be easily measured in a 96-well format. Receptors that activate the G protein, Gq, elicit this response. Alpha 2 receptors, which normally couple to Gi, activate the RSAT response when coexpressed with a hybrid Gq protein that has a Gi receptor recognition domain, called Gq/i5.
# (§3) NIH-3T3 cells are plated at a density of 2×10^6 cells in 15 cm dishes and maintained in Dulbecco's modified Eagle's medium supplemented with 10% calf serum. One day later, cells are cotransfected by calcium phosphate precipitation with mammalian expression plasmids encoding p-SV-β-galactosidase (5-10 μg), receptor (1-2 μg) and G protein (1-2 μg). 40 μg salmon sperm DNA may also be included in the transfection mixture. Fresh media is added on the following day and 1-2 days later, cells are harvested and frozen in 50 assay aliquots. Cells are thawed and 100 μl added to 100 μL aliquots of various concentrations of drugs in triplicate in 96-well dishes. Incubations continue 72-96 hr at 37° C. After washing with phosphate-buffered saline, β-galactosidase enzyme activity is determined by adding 200 μL of the chromogenic substrate (consisting of 3.5 mM o-nitrophenyl-β-D-galactopyranoside and 0.5% nonidet P-40 in phosphate buffered saline), incubating overnight at 30° C. and measuring optical density at 420 nm. The absorbance is a measure of enzyme activity, which depends on cell number and reflects a receptor-mediated cell proliferation. The efficacy or intrinsic activity is calculated as a ratio of the maximal effect of the drug to the maximal effect of a standard full agonist for each receptor subtype. Brimonidine, the chemical structure of which is shown below, is used as the standard agonist for the alpha 2B and alpha 2C receptors.
# Alpha 2C receptor = target: T2, Alpha 2C receptor (Homo sapiens, UniProt P18825); assay: RSAT (Receptor Selection and Amplification Technology) assay, alpha 2C; format: cell-based; conditions: for EC50: NIH-3T3 cells cotransfected with receptor and Gq/i5, na = not active; for RSAT (rel eff) Alpha 2C, intrinsic activity: ratio of maximal effect of the drug to maximal effect of standard full agonist brimonidine
# T2 construct: expressed in transfected cells; host or cells: NIH-3T3
# T2 sequence (P18825 1-462): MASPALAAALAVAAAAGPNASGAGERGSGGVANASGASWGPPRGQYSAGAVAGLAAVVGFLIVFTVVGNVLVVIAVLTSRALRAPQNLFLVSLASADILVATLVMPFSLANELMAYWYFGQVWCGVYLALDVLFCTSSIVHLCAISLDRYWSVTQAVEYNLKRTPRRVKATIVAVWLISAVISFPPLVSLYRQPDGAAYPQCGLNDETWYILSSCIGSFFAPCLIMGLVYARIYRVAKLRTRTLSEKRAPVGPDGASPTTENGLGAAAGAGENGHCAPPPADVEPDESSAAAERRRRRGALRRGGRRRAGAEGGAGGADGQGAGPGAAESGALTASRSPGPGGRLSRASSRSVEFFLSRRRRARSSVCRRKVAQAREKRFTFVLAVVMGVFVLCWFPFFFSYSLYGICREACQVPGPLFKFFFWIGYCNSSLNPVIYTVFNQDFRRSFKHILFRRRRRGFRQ
# Protocol: as §1, §2, §3
SMILES,EC50 (Alpha 2B receptor),"RSAT (rel eff) Alpha 2B, intrinsic activity (Alpha 2B receptor)",EC50 (Alpha 2C receptor),"RSAT (rel eff) Alpha 2C, intrinsic activity (Alpha 2C receptor)"
c1ccc(CC(/N=C2/NCCS2)c2ccccc2)cc1 (centres unmarked),5.43 nM,0.90,9.63 nM,0.42
Clc1ccc(CC(N=C2NCCN2)c2cccc(Cl)c2Cl)c(Cl)c1 (centres unmarked),2.79 nM,1.17,,
Cc1ccc(CC(/N=C2\NCCO2)c2cccc(Cl)c2)cc1 (centres unmarked),5.11 nM,0.74,6.78 nM,0.46
COc1ccccc1CC(NC1=NCCN1)c1cccc(Cl)c1 (centres unmarked),0.61 nM,0.89,,
Clc1cc(Cl)cc(CC(N=C2NCCN2)c2cccc(Cl)c2Cl)c1 (centres unmarked),0.9 nM,1.20,5.74 nM,0.42
COc1cccc(CC(N=C2NCCN2)c2cccc(Cl)c2Cl)c1 (centres unmarked),1.91 nM,1.00,,
Cc1cccc(C(Cc2ccccc2)/N=C2\NCCO2)c1C (centres unmarked),3.48 nM,0.89,13.4 nM,0.39
Clc1cccc(C(Cc2ccccc2)N=C2NCCN2)c1Cl (centres unmarked),3.09 nM,0.89,,
c1ccc(CC(N=C2NCCN2)c2ccccc2)cc1 (centres unmarked),6.38 nM,0.77,,
Clc1cccc(C(Cc2ccccc2Br)N=C2NCCN2)c1Cl (centres unmarked),3.24 nM,0.89,,
Cc1cccc(CC(N=C2NCCN2)c2cccc(Cl)c2)c1 (centres unmarked),1.52 nM,0.81,3.7 nM,0.38
Cc1cccc(CC(/N=C2\NCCO2)c2cccc(Cl)c2)c1 (centres unmarked),2.79 nM,0.92,8.56 nM,0.63
Cc1cccc(C(Cc2ccccc2)/N=C2/NCCS2)c1C (centres unmarked),3.69 nM,0.89,9.48 nM,0.45
c1ccc(CC(/N=C2\NCCO2)c2ccccc2)cc1 (centres unmarked),3.69 nM,0.95,3.36 nM,0.45
Cc1ccccc1CC(N=C1NCCN1)c1cccc(Cl)c1 (centres unmarked),1.92 nM,0.87,,
Cc1c(Cl)cccc1C(Cc1ccccc1)N=C1NCCN1 (centres unmarked),7.64 nM,0.77,,
Clc1cccc(C(Cc2ccccc2)/N=C2\NCCO2)c1 (centres unmarked),7.14 nM,0.83,4.39 nM,0.37
Cc1ccc(CC(/N=C2/NCCS2)c2cccc(Cl)c2)cc1 (centres unmarked),7.32 nM,0.76,11.8 nM,0.45

# From US20090239918A1, “SELECTIVE SUBTYPE ALPHA 2 ADRENERGIC AGENTS AND METHODS FOR USE THEREOF” (ALLERGAN, INC., priority 2008, published 2009)
